Consider 26 compounds from US8648066B2 (Exelixis, Inc., priority 2009, dated 2014).

A value given as a limit tells only on which side of the number the result lay.

The target of the test is mTOR/GbL/Raptor (mTORC1) (Homo sapiens, UniProt P42345). The test can be described thus: mTOR/GbL/Raptor (mTORC1) ELISA assay. Particulars: phosphorylation of 4E-BP1; 0.2 nM mTORC1, 10 μM ATP; read-out: IC50 in this assay (mTORC1 ELISA). Type of test: biochemical. The method in brief: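 Human mTORC1 (0.2 nM) phosphorylated 50 nM His-tagged 4E-BP1 with 10 µM ATP in HEPES pH 7.2 containing 10 mM MnCl2, 120 min at ambient temperature. Substrate was captured on Ni-chelate plates; phospho-4E-BP1 was detected by primary antibody and HRP secondary with luminescence.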
For orientation: ELISA stands for enzyme-linked immunosorbent assay.
As to `COCCOCc1nc2c(c(N3CCOc4ccc(-c5cnc6nc(C)[nH]c6c5)cc4C3)n1)CC(C)(C)CC2` [Example 495, 4-[6,6-dimethyl-2-({[2-(methyloxy)ethyl]oxy}methyl)-5,6,7,8-tetrahydroquinazolin-4-yl]-7-(2-methyl-1H-imidazo[4,5-b]pyridin-6-yl)-2,3,4,5-tetrahydro-1,4-benzoxazepine], the IC50 is not above 10 nM.
As for `Cc1nc2cc(-c3ccc4c(c3)CN(c3nc(C(C)N5CCCC5)nc5c3CC(C)(C)CC5)CCO4)cnc2[nH]1` (centres unmarked) [Example 496, 4-[6,6-dimethyl-2-(1-pyrrolidin-1-ylethyl)-5,6,7,8-tetrahydroquinazolin-4-yl]-7-(2-methyl-3H-imidazo[4,5-b]pyridin-6-yl)-2,3,4,5-tetrahydro-1,4-benzoxazepine], the IC50 lay within 250 to 1000 nM.
To `Cc1nc2cc(-c3ccc4c(c3)CN(c3nc(CCN5CCCC5)nc5c3CC(C)(C)CC5)CCO4)cnc2[nH]1` [Example 497, 4-[6,6-dimethyl-2-(2-pyrrolidin-1-ylethyl)-5,6,7,8-tetrahydroquinazolin-4-yl]-7-(2-methyl-3H-imidazo[4,5-b]pyridin-6-yl)-2,3,4,5-tetrahydro-1,4-benzoxazepine] belongs 10 to 50 nM; to `Cc1nc2ncc(-c3ccc4c(c3)CN(c3nc(CN5CCOCC5)nc5c3CC(C)(C)CC5)CCO4)cc2[nH]1` [Example 498, 4-[6,6-dimethyl-2-(morpholin-4-ylmethyl)-5,6,7,8-tetrahydroquinazolin-4-yl]-7-(2-methyl-1H-imidazo[4,5-b]pyridin-6-yl)-2,3,4,5-tetrahydro-1,4-benzoxazepine], 50 to 250 nM; to `Cc1nc2ncc(-c3ccc4c(c3)CN(c3nc(CN5CCCCC5)nc5c3CC(C)(C)CC5)CCO4)cc2[nH]1` [Example 499, 4-[6,6-dimethyl-2-(piperidin-1-ylmethyl)-5,6,7,8-tetrahydroquinazolin-4-yl]-7-(2-methyl-1H-imidazo[4,5-b]pyridin-6-yl)-2,3,4,5-tetrahydro-1,4-benzoxazepine], 50 to 250 nM.
Under `Cc1nc2cc(-c3ccc4c(c3)CN(c3nc(CN5CCCC5)nc5c3CC(C)(C)CC5)CCO4)ccc2[nH]1` [Example 500, 4-[6,6-dimethyl-2-(pyrrolidin-1-ylmethyl)-5,6,7,8-tetrahydroquinazolin-4-yl]-7-(2-methyl-1H-benzimidazol-5-yl)-2,3,4,5-tetrahydro-1,4-benzoxazepine] stands not above 10 nM.
Regarding `Cc1nc2cc(-c3ccc4c(c3)CN(c3nc(CN5CCCC5)nc5c3CC(C)(C)CC5)CCO4)cnc2[nH]1` [Example 501, 4-[6,6-dimethyl-2-(pyrrolidin-1-ylmethyl)-5,6,7,8-tetrahydroquinazolin-4-yl]-7-(2-methyl-3H-imidazo[4,5-b]pyridin-6-yl)-2,3,4,5-tetrahydro-1,4-benzoxazepine], the IC50 is not above 10 nM.
For `Cc1nc2cc(-c3ccc4c(c3)CN(c3ncnc5c3CC3(CC5)CC3)CCO4)cnc2[nH]1` [Example 502], the IC50 was not above 10 nM.
In the case of `Cc1nc2ncc(-c3ccc4c(c3)CN(c3nc(CN5CCC(F)(F)C5)nc5c3CC(C)(C)CC5)CCO4)cc2[nH]1` [Example 503, 4-{2-[(3,3-difluoropyrrolidin-1-yl)methyl]-6,6-dimethyl-5,6,7,8-tetrahydroquinazolin-4-yl}-7-(2-methyl-1H-imidazo[4,5-b]pyridin-6-yl)-2,3,4,5-tetrahydro-1,4-benzoxazepine], the IC50 fell in the range of 10 to 50 nM.
As to `COc1ccc2c(N3CCOc4ccc(-c5ccc(N)cc5)cc4C3)nc(C)nc2c1` [Example 504, 4-{4-[2-methyl-7-(methyloxy)quinazolin-4-yl]-2,3,4,5-tetrahydro-1,4-benzoxazepin-7-yl}aniline], the IC50 fell in the range of 250 to 1000 nM.
In the case of `Cc1nc2cc(-c3ccc4c(c3)CN(c3nc([C@H]5CCCN5)nc5c3CC(C)(C)CC5)CCO4)ccc2[nH]1` [Example 505, 4-{6,6-dimethyl-2-[(2R)-pyrrolidin-2-yl]-5,6,7,8-tetrahydroquinazolin-4-yl}-7-(2-methyl-1H-benzimidazol-5-yl)-2,3,4,5-tetrahydro-1,4-benzoxazepine], the IC50 is 10 to 50 nM.
In the case of `Cc1nc2cc(-c3ccc4c(c3)CN(c3nc([C@H]5CCCN5)nc5c3CC(C)(C)CC5)CCO4)cnc2[nH]1` [Example 506, 4-{6,6-dimethyl-2-[(2R)-pyrrolidin-2-yl]-5,6,7,8-tetrahydroquinazolin-4-yl]-7-(2-methyl-3H-imidazo[4,5-b]pyridin-6-yl)-2,3,4,5-tetrahydro-1,4-benzoxazepine], the IC50 is not above 10 nM.
`Cc1nc2cc(-c3ccc4c(c3)CN(c3nc([C@@H]5CCCN5)nc5c3CC(C)(C)CC5)CCO4)cnc2[nH]1` [Example 507, 4-{6,6-dimethyl-2-[(2S)-pyrrolidin-2-yl]-5,6,7,8-tetrahydroquinazolin-4-yl}-7-(2-methyl-3H-imidazo[4,5-b]pyridin-6-yl)-2,3,4,5-tetrahydro-1,4-benzoxazepine]: the IC50 is not above 10 nM.
On to `COCc1nc2c(c(N3CCOc4ccc(-c5cnc6[nH]c(C)nc6c5)cc4C3)n1)CC(C)(C)CC2` [Example 508, 4-{6,6-dimethyl-2-[(methyloxy)methyl]-5,6,7,8-tetrahydroquinazolin-4-yl}-7-(2-methyl-3H-imidazo[4,5-b]pyridin-6-yl)-2,3,4,5-tetrahydro-1,4-benzoxazepine], for which the concentration for half-maximal inhibition (IC50) was not above 10 nM.
Under `CN(C)Cc1nc2c(c(N3CCOc4ccc(-c5ccc(N)nc5)cc4C3)n1)CC(C)(C)CC2` [Example 509, 5-(4-{2-[(dimethylamino)methyl]-6,6-dimethyl-5,6,7,8-tetrahydroquinazolin-4-yl}-2,3,4,5-tetrahydro-1,4-benzoxazepin-7-yl)pyridin-2-amine] stands 50 to 250 nM; under `CCS(=O)(=O)c1cc(-c2ccc3c(c2)CN(c2ncnc4c2CC(C)(C)CC4)CCO3)cnc1N` [Example 510, 5-[4-(6,6-dimethyl-5,6,7,8-tetrahydroquinazolin-4-yl)-2,3,4,5-tetrahydro-1,4-benzoxazepin-7-yl]-3-(ethylsulfonyl)pyridin-2-amine], 10 to 50 nM.
Under `CC1(C)CCc2ncnc(N3CCOc4ccc(-c5cnc(N)c(S(=O)(=O)N6CC7CNCC7C6)c5)cc4C3)c2C1` (centres unmarked) [Example 511, 5-[4-(6,6-dimethyl-5,6,7,8-tetrahydroquinazolin-4-yl)-2,3,4,5-tetrahydro-1,4-benzoxazepin-7-yl]-3-(hexahydropyrrolo[3,4-c]pyrrol-2(1H)-ylsulfonyl)pyridin-2-amine] stands 50 to 250 nM; under `CC1(C)CCc2ncnc(N3CCOc4ccc(-c5cnc(N)c(S(C)(=O)=O)c5)cc4C3)c2C1` [Example 512, 5-[4-(6,6-dimethyl-5,6,7,8-tetrahydroquinazolin-4-yl)-2,3,4,5-tetrahydro-1,4-benzoxazepin-7-yl]-3-(methylsulfonyl)pyridin-2-amine], 10 to 50 nM; under `CC1(C)CCc2ncnc(N3CCOc4ccc(-c5cnc(N)c(S(=O)(=O)N6CCOCC6)c5)cc4C3)c2C1` [Example 513, 5-[4-(6,6-dimethyl-5,6,7,8-tetrahydroquinazolin-4-yl)-2,3,4,5-tetrahydro-1,4-benzoxazepin-7-yl]-3-(morpholin-4-ylsulfonyl)pyridin-2-amine], 50 to 250 nM.
Under `CC1(C)CCc2ncnc(N3CCOc4ccc(-c5cnc(N)c(S(=O)(=O)N6CCNCC6)c5)cc4C3)c2C1` [Example 514, 5-[4-(6,6-dimethyl-5,6,7,8-tetrahydroquinazolin-4-yl)-2,3,4,5-tetrahydro-1,4-benzoxazepin-7-yl]-3-(piperazin-1-ylsulfonyl)puridin-2-amine] stands not above 10 nM; under `CC1(C)CCc2ncnc(N3CCOc4ccc(-c5cnc(N)c(S(=O)(=O)N6CCCC6)c5)cc4C3)c2C1` [Example 515, 5-[4-(6,6-dimethyl-5,6,7,8-tetrahydroquinazolin-4-yl)-2,3,4,5-tetrahydro-1,4-benzoxazepin-7-yl]-3-(pyrrolidin-1-ylsulfonyl)pyridin-2-amine], 50 to 250 nM.
On to `CN1CCN(S(=O)(=O)c2cc(-c3ccc4c(c3)CN(c3ncnc5c3CC(C)(C)CC5)CCO4)cnc2N)CC1` [Example 516, 5-[4-(6,6-dimethyl-5,6,7,8-tetrahydroquinazolin-4-yl)-2,3,4,5-tetrahydro-1,4-benzoxazepin-7-yl]-3-[(4-methylpiperazin-1-yl)sulfonyl]pyridin-2-amine], for which the IC50 is 50 to 250 nM.
Under `CC1(C)CCc2ncnc(N3CCOc4ccc(-c5cnc(N)c(CS(C)(=O)=O)c5)cc4C3)c2C1` [Example 517, 5-[4-(6,6-dimethyl-5,6,7,8-tetrahydroquinazolin-4-yl)-2,3,4,5-tetrahydro-1,4-benzoxazepin-7-yl]-3-[(methylsulfonyl)methyl] pyridin-2-amine] stands 10 to 50 nM; under `CN1C[C@@H]2C[C@H]1CN2S(=O)(=O)c1cc(-c2ccc3c(c2)CN(c2ncnc4c2CC(C)(C)CC4)CCO3)cnc1N` [Example 518, 5-[4-(6,6-dimethyl-5,6,7,8-tetrahydroquinazolin-4-yl)-2,3,4,5-tetrahydro-1,4-benzoxazepin-7-yl]-3-{[(1S,4S)-5-methyl-2,5-diazabicyclo[2.2.1]hept-2-yl]sulfonyl}pyridin-2-amine], 50 to 250 nM; under `CNC1CN(S(=O)(=O)c2cc(-c3ccc4c(c3)CN(c3ncnc5c3CC(C)(C)CC5)CCO4)cnc2N)C1` [Example 519, 5-[4-(6,6-dimethyl-5,6,7,8-tetrahydroquinazolin-4-yl)-2,3,4,5-tetrahydro-1,4-benzoxazepin-7-yl]-3-{[3-(methylamino)azetidin-1-yl]sulfonyl}pyridin-2-amine], 10 to 50 nM.
In the case of `CNc1ncc(-c2ccc3c(c2)CN(c2ncnc4c2CC(C)(C)CC4)CCO3)cc1S(=O)(=O)NCCO` [Example 520, 5-[4-(6,6-dimethyl-5,6,7,8-tetrahydroquinazolin-4-yl)-2,3,4,5-tetrahydro-1,4-benzoxazepin-7-yl]-N-(2-hydroxyethyl)-2-(methylamino)pyridine-3-sulfonamide], the IC50 is not above 10 nM.

The IC50 is the concentration at which inhibition is half-maximal.
